Structures can show the parent of a compound that is named as a salt. Where a SMILES comes first, the peptide text is derived from it. [ ]: non-standard residue; d: D form. The star is where a group is joined. Sta = CC(C)C[C@H](N)[C@@H](O)CC(=O)O; Isovaleryl = CC(C)CC(=O)*
System: Candida acid protease
Assay: not given
Settings: background art; cited from earlier work
For `CC(C)CC(=O)N[C@H](C(=O)N[C@H](C(=O)N[C@@H](CC(C)C)[C@@H](O)CC(=O)N[C@@H](C)C(=O)N[C@@H](CC(C)C)[C@@H](O)CC(=O)O)C(C)C)C(C)C` [Pepstatin A] (Isovaleryl-VV[Sta]A[Sta]-OH), the “potency as inhibitor of Candida acid protease (in words)” value is listed as “not very potent inhibitors of the enzyme” and the “specificity (in words)” value is listed as “non-specific”.
In the case of `CC(C)C[C@H](NC(=O)[C@@H](NC(=O)N[C@@H](Cc1ccccc1)C(=O)O)[C@@H]1CCN=C(N)N1)C(=O)N[C@H](C=O)Cc1ccccc1` [chymostatin], the “potency as inhibitor of Candida acid protease (in words)” value is listed as “not very potent inhibitors of the enzyme” and the “specificity (in words)” value is listed as “non-specific”.

Target: T1, Candida albicans acid protease (Candida albicans, UniProt P0DJ06)
T1 construct: endogenous in cells; host or cells: Candida albicans ATCC10231 (proteinase secreted into the culture medium, purified in house)
T1 sequence (P0DJ06 57-398): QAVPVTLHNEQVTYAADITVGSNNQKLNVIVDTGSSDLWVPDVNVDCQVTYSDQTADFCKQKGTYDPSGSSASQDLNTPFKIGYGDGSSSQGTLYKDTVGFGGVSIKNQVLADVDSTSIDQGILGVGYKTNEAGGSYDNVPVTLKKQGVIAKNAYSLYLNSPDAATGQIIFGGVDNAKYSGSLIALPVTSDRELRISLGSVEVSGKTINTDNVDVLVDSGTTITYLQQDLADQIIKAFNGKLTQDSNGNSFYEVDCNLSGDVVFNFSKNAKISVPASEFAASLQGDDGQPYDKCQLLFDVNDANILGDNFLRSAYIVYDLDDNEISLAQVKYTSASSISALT
Assay: In vitro inhibitor assay, microtiter assay with fluorogenic substrate A78331
Type: biochemical, Candida albicans ATCC10231
Settings: not given
Protocol: Isolation and Purification of Candida albican Acid Protease Organism and growth conditions. Candida albicans ATCC10231 was grown overnight in Sabouraud broth (Difco) at 30° C. Cells were centrifuged at 10,000xg for 10 min (4° C.) and the cell pellet washed once with 10 mM phosphate buffered saline (PBS), pH7.0. Washed cells (6×10^6 colony forming units per mL) were grown in yeast nitrogen base without ammonium sulfate or amino acids (Difco), plus 2% glucose and 0.1% casein (nitrogen source) at 37° C.
Proteinase isolation. […] Cells were then harvested at 10,000xg for 20 min (4° C.) and the supernatant filtered through a 0.2μ acetate filter unit (Nalgen). The filtrate was concentrated on an Amicon concentrator (PM30 or YM10 membrane, 75 mm) and 30 mL of the concentrate was loaded onto a Cibacron blue F3GA-6% agarose (Pierce Chem.) column (1.5x44cm) equilibrated with 10 mM sodium citrate, pH 6.5, containing lmM EDTA and 0.02% sodium azide (Ray, T. L., and Payne, C. D. Infection and Immunity 58:508-514, 1990). Bovine serum albumin (BSA) was used as substrate to monitor the column for proteinase activity and to determine total proteolytic units. One BSA proteolytic unit was defined as an optical density (750 nm wavelength) increase of 0.100 under incubation conditions of 37° C. for 60 min (Remold, H., Fasold, H., and Staib, F. Biochimica et Biophysica Acta I67:399-406, 1968). […] Proteinase purity and molecular weight was determined by the Phast-gel (12.5% acrylamide) electrophoresis system (Pharmacia). Protein was determined by the Lowry method (Lowry, O. H., Rosenbrough, N. J., Farr, A. L., and Randall, R. J. Journal of Biological Chemistry 193:263-275, 1951). A fluorogenic substrate, A78331, may also be used to monitor proteinase production and purification. This substrate, DABCYL-Gaba-[…]EDANS (Holzman, T. F., Chung, C. C., Edalji, R., Egan, D. A., Gubbins, E. J., Rueter, A., Howard, G., Yang, L. K., Pederson, T. M., Krafft, G. A., and Wang, G. T. Journal of Protein Chemistry 9:663-672, 1990) contains the fluorescent EDANS group, [5-(2-aminoethyl)-amino]naphthalene-1-sulfonic acid, which is quenched by the DABCYL group, 4-(4-dimethyl-aminophenylazo)benzoic acid, as long as it is part of the molecule (Matayoshi, E. D., Wang, G. T., Krafft, G. A., and Erickson, J. Science 247:954-958, 1990). Proteolysis of this compound by the fungal proteinase releases Thr-EDANS, which when activated at 340 nm fluoresces at 490 nm with the same intensity as equimolar EDANS. Activity is expressed in terms of nmol EDANS released from 32 μM A78331 under incubation conditions of 22° C. for 60 min.
In Vitro Inhibitor Assay Method
Microtiter assay. The assay for inhibitors of C. albicans acid proteinase was done in microtiter trays with the fluorogenic substrate A78331. […] The reaction mixture consisted of 5μL test compound or dimethyl sulfoxide and 45μL of fungal proteinase (0.13 BSA proteolytic units or 0.13 nmol EDANS released) in 50 mM sodium citrate, pH 4.5, which was preincubated at 22° C. for 30 min. The reaction was started with the addition of 50μL fluorogenic substrate in citrate buffer and the incubation was continued at 22° C. for 90 min. The reaction was terminated with 150μL pepstatin (final concentration of 1μM) and 210μL samples were transfered to microfluor plates for fluorescence quantitation in a luminescence spectrophotometer (Perkin-Elmer model LS-50). The excitation wavelength was 340 nm and the emission was monitored at 490 nm (430 nm filter employed). Inhibition was expressed as % change in relative intensity from the dimethyl sulfoxide control group (no inhibitor). IC50's were determined from plots of log dose versus % inhibition from control.
With `CCCCNC(=O)[C@H](C[C@H](O)[C@H](CC1CCCCC1)NC(=O)[C@H](CCCC)N1CCN(C(=O)N2CCN(C)CC2)[C@H](Cc2ccccc2)C1=O)C(C)C` [Example 1, (2S)-2-((3R)-3-Benzyl-4-N-(4-methylpiperazin-1-yl-carbonyl)-2-keto-piperazin-1-yl}-hexanoic acid Amide of (2R,4S,5S)-5-amino-6-cyclohexyl-4-hydroxy-2-isopropylhexanoyl N-(n-Butyl)amide Hydrochloride] the IC50 was 1.3 nM.
`CCCCNC(=O)[C@H](C[C@H](O)[C@H](CC1CCCCC1)NC(=O)[C@H](CCCC)N1C[C@@H](Cc2ccccc2)N(S(=O)(=O)c2ccc(C)cc2)CC1=O)C(C)C` [Example 3, (2S)-2-{(3R)-3-Benzyl-4-N-(4-methylbenzene-sulfonyl)-6-keto-piperazin-1-yl}-hexanoic acid Amide of (2R,4S,5S)-5-Amino-6-cyclohexyl-4-hydroxy-2-isopropylhexanoyl N-(n-Butyl)amide] showed an IC50 of 30.1 nM.
For `CCCCNC(=O)[C@H](C[C@H](O)[C@H](CC1CCCCC1)NC(=O)[C@H](CCCC)N1CCN(S(=O)(=O)c2ccc(OC)cc2)[C@H](Cc2ccccc2)C1=O)C(C)C` [Example 5, (2S)-2-{(3R)-3-Benzyl-4-N-(4-methoxybenzene-sulfonyl)-2-keto-piperazin-1-yl)-hexanoic acid Amide of (2R,4S,5S)-5-Amino-6-cyclohexyl-4-hydroxy-2-isopropylhexanoyl N-(n-Butyl)amide], the IC50 was 13.3 nM.
`CCCC[C@@H](C(=O)N[C@@H](CC1CCCCC1)[C@@H](O)[C@@H](O)CC(C)C)N1CCN(S(=O)(=O)c2ccc(NC)cc2)[C@H](Cc2ccccc2)C1=O` [Example 11, (2S)-2-{(3R)-3-Benzyl-4-N-(4-(methylamino)benzene-sulfonyl)-2-keto-piperazin-1-yl}-hexanoic acid Amide of (2S,3R,4S)-2-Amino-1-cyclohexyl-3,4-dihydroxyl-6-methylheptane] showed an IC50 of 85 nM.
Molecule `CCCC[C@@H](C(=O)N[C@@H](CC1CCCCC1)[C@@H](O)C[C@@H](C(=O)NCCCN1CCOCC1)C(C)C)N1CCN(C(=O)N2CCN(C)CC2)[C@@H](Cc2ccccc2)C1=O` [Example 12, (2S)-2-{(3S)-3-Benzyl-4-N-(4-methylpiperazin-1-yl-carbonyl)-2-keto-piperazin-1-yl}-hexanoic acid Amide of (2R,4S,5S)-5-Amino-6-cyclohexyl-4-hydroxy-2-isopropylhexanoyl N-3-(N-Morpholinyl)propyllamide] has an IC50 of 3.8 nM.
`CCCCNC(=O)[C@H](C[C@H](O)[C@H](CC1CCCCC1)NC(=O)[C@H](CCCC)N1CCN(S(=O)(=O)N2CCN(C)CC2)[C@@H](Cc2ccccc2)C1=O)C(C)C` [Example 13] gave an IC50 of 2.7 nM.
`CCCCNC(=O)[C@H](C[C@H](O)[C@H](CC1CCCCC1)NC(=O)[C@H](CCCC)N1CCN(C(=O)N2CCC(OCOC)CC2)[C@@H](Cc2ccccc2)C1=O)C(C)C` [Example 14, 2S-(3S-Benzyl-4-N-(4-methoxymethoxypiperidinyl-carbonyl)-2-keto-piperazin-1-yl)-hexanoic acid Amide of (2R,4,5S) -5-Amino-6-cyclohexyl-4-hydroxy-2-isopropylhexanoyl N-(n-Butyl)amide] showed an IC50 of 4.5 nM.
Work on `CCCC[C@@H](C(=O)N[C@@H](CC1CCCCC1)[C@@H](O)C[C@@H](C(=O)NCCCN1CCOCC1)C(C)C)N1CCN(S(=O)(=O)N2CCN(C)CC2)[C@@H](Cc2ccccc2)C1=O` [Example 15, (2S)-2-{(3S)-3-Benzyl-4-N-(4-methylpiperazin-1-yl-sulfonyl)-2-keto-piperazine-1-yl}-hexanoic acid Amide of (2R,4S,5S)-5-Amino-6-cyclohexyl-4hydroxy-2-isopropylhexanoyl N-[3-(N-Morpholinyl)propyl]amide] yielded an IC50 of 3.8 nM.
For `CCCC[C@@H](C(=O)N[C@@H](CC1CCCCC1)[C@@H](O)C[C@@H](C(=O)NCCCN1CCOCC1)C(C)C)N1CCN(C(=O)N2CCC(OCOC)CC2)[C@@H](Cc2ccccc2)C1=O` [Example 16, (2S)-2-{(3S)-3-Benzyl-4-N-(4-methoxymethoxypiperidin-1-yl-carbonyl)-2-keto-piperazin-1-yl}-hexanoic acid Amide of (2R, 4S, 5S)-5-Amino-6-cyclohexyl-4-hydroxy-2-isopropylhexanoyl N-[3-(N-Morpholinyl)propyl]amide], the IC50 was 5 nM.
In the case of `CCCC[C@@H](C(=O)N[C@@H](CC1CCCCC1)[C@@H](O)C[C@@H](C(=O)NCCN(C)C)C(C)C)N1CCN(C(=O)N2CCN(C)CC2)[C@H](Cc2ccccc2)C1=O` [Example 17], the IC50 is reported as 6.2 nM.
With `CCCC[C@@H](C(=O)N[C@@H](CC1CCCCC1)[C@@H](O)C[C@@H](C(=O)NCCCN(C)C)C(C)C)N1CCN(C(=O)N2CCN(C)CC2)[C@H](Cc2ccccc2)C1=O` [Example 18, (2S)-2{(3R)-3-Benzyl-4-N-(4-methylpiperazin-1-yl-carbonyl)-2-keto-piperazin-1-yl}-hexanoic acid Amide of (2R,4S,5S)-5-Amino-6-cyclohexyl-4-hydroxy-2-isopropylhexanoyl N-[3-(Dimethylamino)propyl]amide] the IC50 was 3.8 nM.

Reference: US5120718A, “Candida acid protease inhibiting compounds” (priority 1991, dated 1992)
